# Experimental data taken from the NIST ThermoML archive (doi:10.1016/j.jct.2015.12.027).
# Numbers after ± are expanded uncertainties.
# Columns and labels:
# [1] = refractive index (Na D-line) (dimensionless); xn = mol fraction of the nth substance listed; conditions: 81.5 kPa, Liquid, Standard Abbe refractometry
# [2] = xn = mol fraction of the nth substance listed; conditions: 81.5 kPa, Liquid, Vibrating tube method
# [3] = 81.5 kPa, Liquid, Vibrating tube method
# [4] = refractive index (Na D-line) (dimensionless); conditions: 81.5 kPa, Liquid, Standard Abbe refractometry
SMILES,"refractive index ([1]; 293.15 K, x1 = 1)","refractive index ([1]; 303.15 K, x1 = 1)","refractive index ([1]; 313.15 K, x1 = 1)","refractive index ([1]; 323.15 K, x1 = 1)","refractive index ([1]; 333.15 K, x1 = 1)","mass density ([2]; 293.15 K, x1 = 1) [kg/m3]","mass density ([2]; 303.15 K, x1 = 1) [kg/m3]","mass density ([2]; 313.15 K, x1 = 1) [kg/m3]","mass density ([2]; 323.15 K, x1 = 1) [kg/m3]","mass density ([2]; 333.15 K, x1 = 1) [kg/m3]",mass density ([3]; 293.15 K) [kg/m3],mass density ([3]; 303.15 K) [kg/m3],mass density ([3]; 313.15 K) [kg/m3],mass density ([3]; 323.15 K) [kg/m3],mass density ([3]; 333.15 K) [kg/m3],refractive index ([4]; 293.15 K),refractive index ([4]; 303.15 K),refractive index ([4]; 313.15 K),refractive index ([4]; 323.15 K),refractive index ([4]; 333.15 K),also measured
"ClCCCl [1,2-dichloroethane] + O=[N+]([O-])c1ccccc1",1.44472 ± 0.01,1.43948 ± 0.01,1.43423 ± 0.01,1.42897 ± 0.01,1.42373 ± 0.01,1252.82 ± 10,1238.27 ± 10,1223.53 ± 10,1208.61 ± 10,1193.61 ± 10,,,,,,,,,,,
O=[N+]([O-])c1ccccc1 [nitrobenzene],,,,,,,,,,,1203.05 ± 10,1193.15 ± 10,1183.21 ± 10,1173.27 ± 10,1163.32 ± 10,1.55241 ± 0.01,1.54763 ± 0.01,1.54288 ± 0.01,1.53795 ± 0.01,1.53289 ± 0.01,
"ClCCCl [1,2-dichloroethane]",,,,,,,,,,,1252.82 ± 10,1238.27 ± 10,1223.53 ± 10,1208.61 ± 10,1193.61 ± 10,1.44472 ± 0.01,1.43948 ± 0.01,1.43423 ± 0.01,1.42897 ± 0.01,1.42373 ± 0.01,
c1ccccc1 [benzene] + ClCCCl,,,,,,,,,,,,,,,,,,,,,"refractive index ([1]; 293.15 K, x2 = 0): 1.50118 ± 0.01; refractive index ([1]; 303.15 K, x2 = 0): 1.49517 ± 0.01; refractive index ([1]; 313.15 K, x2 = 0): 1.4885 ± 0.01; refractive index ([1]; 323.15 K, x2 = 0): 1.48264 ± 0.01; refractive index ([1]; 333.15 K, x2 = 0): 1.47638 ± 0.01; mass density ([2]; 293.15 K, x2 = 0): 878.87 ± 10 kg/m3; mass density ([2]; 303.15 K, x2 = 0): 868.2 ± 10 kg/m3; mass density ([2]; 313.15 K, x2 = 0): 857.44 ± 10 kg/m3; mass density ([2]; 323.15 K, x2 = 0): 846.62 ± 10 kg/m3; mass density ([2]; 333.15 K, x2 = 0): 835.71 ± 10 kg/m3"
"ClCCCl [1,2-dichloroethane] + Clc1ccccc1",1.44472 ± 0.01,1.43948 ± 0.01,1.43423 ± 0.01,1.42897 ± 0.01,1.42373 ± 0.01,1252.82 ± 10,1238.27 ± 10,1223.53 ± 10,1208.61 ± 10,1193.61 ± 10,,,,,,,,,,,
Clc1ccccc1 [chlorobenzene],,,,,,,,,,,1106.49 ± 10,1095.71 ± 10,1084.86 ± 10,1073.96 ± 10,1063.01 ± 10,1.52455 ± 0.01,1.51902 ± 0.01,1.51346 ± 0.01,1.50781 ± 0.01,1.50223 ± 0.01,
Brc1ccccc1 [bromobenzene],,,,,,,,,,,1495.52 ± 10,1481.97 ± 10,1468.41 ± 10,1454.85 ± 10,1441.22 ± 10,1.55981 ± 0.01,1.55442 ± 0.01,1.5489 ± 0.01,1.54319 ± 0.01,1.53742 ± 0.01,
c1ccccc1 [benzene],,,,,,,,,,,878.87 ± 10,868.2 ± 10,857.44 ± 10,846.62 ± 10,835.71 ± 10,1.50118 ± 0.01,1.49517 ± 0.01,1.4885 ± 0.01,1.48264 ± 0.01,1.47638 ± 0.01,
"ClCCCl [1,2-dichloroethane] + Brc1ccccc1",1.44472 ± 0.01,1.43948 ± 0.01,1.43423 ± 0.01,1.42897 ± 0.01,1.42373 ± 0.01,1252.82 ± 10,1238.27 ± 10,1223.53 ± 10,1208.61 ± 10,1193.61 ± 10,,,,,,,,,,,
